This is an account of results in US7615642B2, “Therapeutic compounds” (priority 2006, dated 2009).

Series [1] addresses T1, Human CB1 receptor (Homo sapiens, UniProt P21554).
T1 construct: purchased Receptor Biology
The series can be described thus: hCB1 GTPγS binding. It is filed as biochemical. Conditions: human CB1 membranes, GTPg35S binding. The procedure: Human CB1 receptor from Receptor Biology (hCB1) or human CB2 receptor membranes (BioSignal) are thawed at 37° C., passed 3 times through a 25-gauge blunt-end needle and diluted in the GTPγS binding buffer (50 mM Hepes, 20 mM NaOH, 100 mM […], 1 mM EDTA, 5 mM MgCl2, pH 7.4, 0.1% BSA). The EC50 and Emax of the compounds of the invention are evaluated from 10-point dose-response curves done in […] with the appropriate amount of membrane protein and 100000-130000 dpm of GTPg^35S per well (0.11-0.14 nM). The basal and maximal stimulated binding is determined in absence and presence of 1 μM (hCB2) or 10 μM (hCB1) Win 55,212-2 respectively. The membranes are pre-incubated for 5 minutes with 56.25 μM (hCB2) or 112.5 μM (hCB1) GDP prior to distribution in plates (15 μM (hCB2) or 30 μM (hCB1) GDP final). The plates are vortexed and incubated for 60 minutes at room temperature, filtered on Unifilters GF/B (presoaked in water) with the Tomtec or Packard harvester using 3 ml of wash buffer (50 mM Tris, 5 mM MgCl2, 50 mM NaCl, pH 7.0). The filters are dried for 1 hour at 55° C. The radioactivity (cpm) is counted in a TopCount (Packard) after adding 65 μl/well of MS-20 scintillation liquid. Antagonist reversal studies are done in the same way except that (a) an agonist dose-response curve is done in the presence of a constant concentration of antagonist, or (b) an antagonist dose-response curve is done in the presence of a constant concentration of agonist.

For series [2], the target named is T1, Human CB1 receptor. Put plainly: hCB1 receptor binding (3H-CP55,940 displacement). The procedure:
Human CB1 receptor from Receptor Biology (hCB1) or human CB2 receptor from BioSignal (hCB2) membranes are thawed at 37° C., passed 3 times through a 25-gauge blunt-end needle, diluted in the cannabinoid binding buffer (50 mM Tris, 2.5 mM EDTA, 5 mM MgCl2, and 0.5 mg/mL BSA fatty acid free, pH 7.4) and aliquots containing the appropriate amount of protein are distributed into 96-well plates. The IC50 of the compounds of the invention at hCB1 and hCB2 are evaluated from 10-point dose-response curves done with ^3H-CP55,940 at 20000 to 25000 dpm per well (0.17-0.21 nM) in a final volume of 300 μl. The total and non-specific binding are determined in the absence and presence of 0.2 μM of HU210 respectively. The plates are vortexed and incubated for 60 minutes at room temperature, filtered through Unifilters GF/B (presoaked in 0.1% polyethyleneimine) with the Tomtec or Packard harvester using 3 mL of wash buffer (50 mM Tris, 5 mM MgCl2, 0.5 mg BSA pH 7.0). The filters are dried for 1 hour at 55° C. The radioactivity (cpm) is counted in a TopCount (Packard) after adding 65 μl/well of MS-20 scintillation liquid.
Based on the above assays, the dissociation constant (Ki) for a particular compound of the invention towards a particular receptor is determined using the following equation: Ki=IC50/(1+[rad]/Kd),
Wherein IC50 is the concentration of the compound of the invention at which 50% displacement has been observed;
[rad] is a standard or reference radioactive ligand concentration at that moment; and
Kd is the dissociation constant of the radioactive ligand towards the particular receptor.

Each structure is given as a SMILES string. Converted amounts (≈) assume the structure as drawn.

For orientation: EC50 means the concentration that produces a half-maximal response. Read a high EC50 as a less potent agent. In general, Ki refers to a measure of affinity in units of concentration, obtained from inhibition or displacement. Lower therefore signals a stronger hold on the target. In general, solubility refers to the concentration that dissolves in the medium under given conditions. The low end stands for a poorly soluble substance, the high end for a readily soluble substance.

T1 sequence (P21554 whole entry): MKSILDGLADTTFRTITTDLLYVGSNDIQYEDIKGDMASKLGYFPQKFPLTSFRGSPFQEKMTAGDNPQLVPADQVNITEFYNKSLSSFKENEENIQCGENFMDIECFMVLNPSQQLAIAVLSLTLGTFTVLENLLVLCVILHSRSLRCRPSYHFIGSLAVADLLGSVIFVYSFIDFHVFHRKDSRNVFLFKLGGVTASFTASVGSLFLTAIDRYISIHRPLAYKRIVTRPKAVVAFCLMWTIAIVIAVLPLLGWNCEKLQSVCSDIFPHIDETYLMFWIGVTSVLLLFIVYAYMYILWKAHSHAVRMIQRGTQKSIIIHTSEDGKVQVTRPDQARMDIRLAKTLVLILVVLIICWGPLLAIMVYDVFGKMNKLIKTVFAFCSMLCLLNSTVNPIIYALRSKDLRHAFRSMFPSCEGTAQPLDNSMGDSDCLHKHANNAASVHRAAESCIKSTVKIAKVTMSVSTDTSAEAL

The molecule `CC(C)(C)c1nc2cc(S(=O)(=O)n3cc(C(=O)NC4CC4)cn3)ccc2n1CC1CCC(F)(F)CC1` [1-({2-tert-Butyl-1-[(4,4-difluorocyclohexyl)methyl]-1H-benzimidazol-5-yl}sulfonyl)-N-cyclopropyl-1H-pyrazole-4-carboxamide] showed an EC50 on Human CB1 receptor [1] of 0.58 nM. For the same molecule, the Ki on Human CB1 receptor [2] worked out at 0.88 nM. The amount in solution in the series “Solubility” (solubility) came to 6.16 µM (≈ 3.2 µg/mL).
The corresponding values for `CC(C)NC(=O)c1cnn(S(=O)(=O)c2ccc3c(c2)nc(C(C)(C)C)n3CC2CCC(F)(F)CC2)c1` [1-({2-tert-Butyl-1-[(4,4-difluorocyclohexyl)methyl]-1H-benzimidazol-5-yl}sulfonyl)-N-isopropyl-1H-pyrazole-4-carboxamide] are 3.41 nM, 1.82 nM and 0.26 µM (≈ 0.136 µg/mL).
`CNC(=O)c1cnn(S(=O)(=O)c2ccc3c(c2)nc(C(C)(C)C)n3CC2CCC(F)(F)CC2)c1` [1-({2-tert-Butyl-1-[(4,4-difluorocyclohexyl)methyl]-1H-benzimidazol-5-yl}sulfonyl)-N-methyl-1H-pyrazole-4-carboxamide]: a half-maximal response on Human CB1 receptor [1] (EC50) required 1.21 nM. The molecule also showed a Ki at Human CB1 receptor [2] of 1.61 nM. The molecule further showed a solubility in “Solubility” of 2.52 µM (≈ 1.24 µg/mL).
Regarding `CCNC(=O)c1ccn(S(=O)(=O)c2ccc3c(c2)nc(C(C)(F)F)n3CC2CCOCC2)c1` [1-{[2-(1,1-Difluoroethyl)-1-(tetrahydro-2H-pyran-4-ylmethyl)-1H-benzimidazol-5-yl]sulfonyl}-N-ethyl-1H-pyrrole-3-carboxamide], the inhibition constant Ki on Human CB1 receptor [2] was determined as 88 nM. Moreover, the concentration in solution in “Solubility” (solubility) was 7.45 µM (≈ 3.58 µg/mL).
Regarding `CC(C)(C)c1nc2cc(S(=O)(=O)n3ccc(N)n3)ccc2n1CC1CCOCC1` [1-{[2-tert-Butyl-1-(tetrahydro-2H-pyran-4-ylmethyl)-1H-benzimidazol-5-yl]sulfonyl}-1H-pyrazol-3-amine], affinity at Human CB1 receptor [2] was put at a Ki of 252 nM. The same molecule registered a solubility in the series “Solubility” of 43 µM (≈ 18 µg/mL).
The molecule `CC(C)(C)c1nc2cc(S(=O)(=O)n3ccc(C(=O)NC4CC4)c3)ccc2n1CC1CCOCC1` [1-{[2-tert-Butyl-1-(tetrahydro-2H-pyran-4-ylmethyl)-1H-benzimidazol-5-yl]sulfonyl}-N-cyclopropyl-1H-pyrrole-3-carboxamide] came in with an EC50 at Human CB1 receptor [1] of 10.5 nM. The molecule further displayed a Ki at Human CB1 receptor [2] of 5.68 nM. The same molecule had a solubility in the series “Solubility” of 5.64 µM (≈ 2.73 µg/mL).
`CCNC(=O)c1cnn(S(=O)(=O)c2ccc3c(c2)nc(C(C)(C)C)n3CC2CCOCC2)c1` [1-{[2-tert-Butyl-1-(tetrahydro-2H-pyran-4-ylmethyl)-1H-benzimidazol-5-yl]sulfonyl}-N-ethyl-1H-pyrazole-4-carboxamide] showed an EC50 at Human CB1 receptor [1] of 57.2 nM. The molecule further showed a Ki on Human CB1 receptor [2] of 14.6 nM. For the same molecule, the solubility in “Solubility” was found to be 337 µM (≈ 160 µg/mL).
Molecule `CNC(=O)C1CCN(S(=O)(=O)c2ccc3c(c2)nc(C(C)(C)C)n3CC2CCOCC2)C1` (stereo not drawn) [1-{[2-tert-Butyl-1-(tetrahydro-2H-pyran-4-ylmethyl)-1H-benzimidazol-5-yl]sulfonyl}-N-methylpyrrolidine-3-carboxamide] returned a Ki on Human CB1 receptor [2] of 833 nM. In “Solubility”, this molecule registered a solubility of 2600 µM (≈ 1200 µg/mL).
`CCNC(=O)c1ccn(S(=O)(=O)c2ccc3c(c2)nc(C(C)(C)C)n3CC2CCOCC2)c1` [1-{[2-tert-butyl-1-(tetrahydro-2H-pyran-4-ylmethyl)-1H-benzimidazol-5-yl]sulfonyl}-N-ethyl-1H-pyrrole-3-carboxamide]: the EC50 on Human CB1 receptor [1] came out at 84.2 nM. Moreover, the Ki at Human CB1 receptor [2] amounted to 24.2 nM. In the series “Solubility”, this molecule registered a solubility of 28 µM (≈ 13.2 µg/mL).
Consider `CC(C)(C)c1nc2cc(S(=O)(=O)N3CCOCC3)ccc2n1CC1CCOCC1` [2-tert-Butyl-5-(morpholin-4-ylsulfonyl)-1-(tetrahydro-2H-pyran-4-ylmethyl)-1H-benzimidazole], for which, on Human CB1 receptor [2], affinity was put at a Ki of 1530 nM. In the series “Solubility”, this molecule gave a solubility of 128 µM (≈ 54.1 µg/mL).
Take `CC(C)(C)c1nc2cc(S(=O)(=O)N3CCCC(c4ccccc4)C3)ccc2n1CC1CCOCC1` (stereo not drawn) [2-tert-Butyl-5-[(3-phenylpiperidin-1-yl)sulfonyl]-1-(tetrahydro-2H-pyran-4-ylmethyl)-1H-benzimidazole]: the affinity at Human CB1 receptor [2] corresponds to a Ki of 278 nM. In the series “Solubility”, the solubility came out at 0.79 µM (≈ 0.392 µg/mL).
As to `CC(C)(C)c1nc2cc(S(=O)(=O)N3CCC(c4ccccc4)C3)ccc2n1CC1CCOCC1` (stereo not drawn) [2-tert-Butyl-5-[(3-phenylpyrrolidin-1-yl)sulfonyl]-1-(tetrahydro-2H-pyran-4-ylmethyl)-1H-benzimidazole], on Human CB1 receptor [2], the affinity corresponds to a Ki of 110 nM. Further, the solubility in the series “Solubility” came out at 7.29 µM (≈ 3.51 µg/mL).
`CC(C)(C)c1nc2cc(S(=O)(=O)N3CCOC(C(=O)NC4CC4)C3)ccc2n1CC1CCC(F)(F)CC1` (stereo not drawn) [4-({2-tert-Butyl-1-[(4,4-difluorocyclohexyl)methyl]-1H-benzimidazol-5-yl}sulfonyl)-N-cyclopropylmorpholine-2-carboxamide] yielded an EC50 on Human CB1 receptor [1] of 10.4 nM. Moreover, at Human CB1 receptor [2], the Ki worked out at 11.3 nM. This molecule also came in with a solubility in “Solubility” of 42.5 µM (≈ 22.9 µg/mL).
The corresponding values for `CCNC(=O)[C@@H]1CN(S(=O)(=O)c2ccc3c(c2)nc(C(C)(C)C)n3CC2CCC(F)(F)CC2)CCO1` [(2S)-4-({2-tert-butyl-1-[(4,4-difluorocyclohexyl)methyl]-1H-benzimidazol-5-yl}sulfonyl)-N-ethylmorpholine-2-carboxamide] are 43.8 nM, 18 nM and 43.4 µM (≈ 22.8 µg/mL).
On to `CC(C)(C)c1nc2cc(S(=O)(=O)N3CCC[C@H](C(=O)NC4CC4)C3)ccc2n1CC1CCC(F)(F)CC1` [(3S)-1-({2-tert-Butyl-1-[(4,4-difluorocyclohexyl)methyl]-1H-benzimidazol-5-yl}sulfonyl)-N-cyclopropylpiperidine-3-carboxamide], for which the EC50 on Human CB1 receptor [1] was found to be 1.71 nM. This molecule also registered a Ki on Human CB1 receptor [2] of 2.05 nM. In addition, the concentration in solution in “Solubility” (solubility) was 29.4 µM (≈ 15.8 µg/mL).
In turn, `CCCNC(=O)[C@H]1CCCN(S(=O)(=O)c2ccc3c(c2)nc(C(C)(C)C)n3CC2CCC(F)(F)CC2)C1` [(3S)-1-({2-tert-Butyl-1-[(4,4-difluorocyclohexyl)methyl]-1H-benzimidazol-5-yl}sulfonyl)-N-propylpiperidine-3-carboxamide] showed an EC50 on Human CB1 receptor [1] of 1.69 nM. In addition, the Ki at Human CB1 receptor [2] was found to be 2.03 nM. For the same molecule, the solubility in the series “Solubility” turned out to be 16.8 µM (≈ 9.04 µg/mL).
`CC(F)(F)c1nc2cc(S(=O)(=O)n3ccc(C(=O)NC4CC4)c3)ccc2n1CC1CCOCC1` [N-Cyclopropyl-1-{[2-(1,1-difluoroethyl)-1-(tetrahydro-2H-pyran-4-ylmethyl)-1H-benzimidazol-5-yl]sulfonyl}-1H-pyrrole-3-carboxamide]: a half-maximal effect at Human CB1 receptor [1] (EC50) was put at 17.8 nM. The same molecule came in with a Ki on Human CB1 receptor [2] of 19.1 nM. This molecule also gave a solubility in “Solubility” of 6.2 µM (≈ 3.05 µg/mL).
